The target of one test is T1, TRIM24 (Homo sapiens, UniProt O15164).
T1 sequence (O15164 1-1050): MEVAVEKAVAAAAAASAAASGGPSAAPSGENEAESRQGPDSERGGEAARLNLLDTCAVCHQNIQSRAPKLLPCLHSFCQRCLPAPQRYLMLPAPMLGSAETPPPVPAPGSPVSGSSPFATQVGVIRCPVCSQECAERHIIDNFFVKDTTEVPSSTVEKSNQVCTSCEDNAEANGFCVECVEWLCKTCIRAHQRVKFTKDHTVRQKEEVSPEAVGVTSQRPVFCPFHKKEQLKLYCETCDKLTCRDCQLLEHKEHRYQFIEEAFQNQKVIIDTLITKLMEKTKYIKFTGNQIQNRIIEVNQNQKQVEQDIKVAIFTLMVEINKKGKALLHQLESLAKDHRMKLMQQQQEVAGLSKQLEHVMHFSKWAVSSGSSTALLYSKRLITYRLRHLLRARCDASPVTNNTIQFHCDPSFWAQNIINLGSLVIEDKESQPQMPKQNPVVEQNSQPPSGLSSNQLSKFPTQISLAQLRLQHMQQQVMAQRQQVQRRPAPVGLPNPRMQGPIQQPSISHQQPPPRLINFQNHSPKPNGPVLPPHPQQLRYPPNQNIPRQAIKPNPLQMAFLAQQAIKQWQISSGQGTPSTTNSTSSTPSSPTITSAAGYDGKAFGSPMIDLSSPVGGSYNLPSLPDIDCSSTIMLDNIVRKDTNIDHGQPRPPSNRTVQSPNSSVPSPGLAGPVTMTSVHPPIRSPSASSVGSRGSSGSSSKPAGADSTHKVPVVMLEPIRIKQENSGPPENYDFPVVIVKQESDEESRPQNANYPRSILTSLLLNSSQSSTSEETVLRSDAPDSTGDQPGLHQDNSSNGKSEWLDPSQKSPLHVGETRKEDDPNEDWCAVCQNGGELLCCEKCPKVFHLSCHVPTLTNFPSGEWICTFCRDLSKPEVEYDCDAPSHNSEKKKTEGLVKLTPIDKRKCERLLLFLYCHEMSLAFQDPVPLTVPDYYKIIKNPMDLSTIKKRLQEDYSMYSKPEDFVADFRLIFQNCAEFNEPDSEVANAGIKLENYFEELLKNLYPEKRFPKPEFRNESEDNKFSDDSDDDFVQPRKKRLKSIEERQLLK
Put plainly: AlphaScreen binding assay for TRIM24 (counter-screening assay). An excerpt: (§1) A compound of the present application can be tested for its TRIM33 and/or TRIM24 activity with AlphaScreen Assay illustrated in FIG. 1.
(§2) Additionally, a second AlphaScreen® binding assay for TRIM24 as counter-screening assay for selectivity of TRIM33 over TRIM24 was developed. A focused compound libraries for TRIM33 inhibitor development was designed and synthesized using the design principle that is to connect the bromodomain binding motif/fragment to proper chemical scaffold via multi-component reactions, such as Groebke-Blackburn-Bienaymé (GBB) coupling reaction, to establish chemically bias library.
(§3) With multiple libraries synthesized (˜400 compounds) as described above, compounds were screened against TRIM33 and TRIM24 by AlphaScreen to establish structure activity relationship (SAR).
Background: Alpha assays give light when donor and acceptor beads are brought close together.

The target of test [1] is T2, recombinant PHD-bromodomain module of TRIM33 (Homo sapiens, UniProt Q9UPN9).
T2 construct: rows headed: TRIM33 modulating activity; unit not given
T2 sequence (Q9UPN9 1-1127): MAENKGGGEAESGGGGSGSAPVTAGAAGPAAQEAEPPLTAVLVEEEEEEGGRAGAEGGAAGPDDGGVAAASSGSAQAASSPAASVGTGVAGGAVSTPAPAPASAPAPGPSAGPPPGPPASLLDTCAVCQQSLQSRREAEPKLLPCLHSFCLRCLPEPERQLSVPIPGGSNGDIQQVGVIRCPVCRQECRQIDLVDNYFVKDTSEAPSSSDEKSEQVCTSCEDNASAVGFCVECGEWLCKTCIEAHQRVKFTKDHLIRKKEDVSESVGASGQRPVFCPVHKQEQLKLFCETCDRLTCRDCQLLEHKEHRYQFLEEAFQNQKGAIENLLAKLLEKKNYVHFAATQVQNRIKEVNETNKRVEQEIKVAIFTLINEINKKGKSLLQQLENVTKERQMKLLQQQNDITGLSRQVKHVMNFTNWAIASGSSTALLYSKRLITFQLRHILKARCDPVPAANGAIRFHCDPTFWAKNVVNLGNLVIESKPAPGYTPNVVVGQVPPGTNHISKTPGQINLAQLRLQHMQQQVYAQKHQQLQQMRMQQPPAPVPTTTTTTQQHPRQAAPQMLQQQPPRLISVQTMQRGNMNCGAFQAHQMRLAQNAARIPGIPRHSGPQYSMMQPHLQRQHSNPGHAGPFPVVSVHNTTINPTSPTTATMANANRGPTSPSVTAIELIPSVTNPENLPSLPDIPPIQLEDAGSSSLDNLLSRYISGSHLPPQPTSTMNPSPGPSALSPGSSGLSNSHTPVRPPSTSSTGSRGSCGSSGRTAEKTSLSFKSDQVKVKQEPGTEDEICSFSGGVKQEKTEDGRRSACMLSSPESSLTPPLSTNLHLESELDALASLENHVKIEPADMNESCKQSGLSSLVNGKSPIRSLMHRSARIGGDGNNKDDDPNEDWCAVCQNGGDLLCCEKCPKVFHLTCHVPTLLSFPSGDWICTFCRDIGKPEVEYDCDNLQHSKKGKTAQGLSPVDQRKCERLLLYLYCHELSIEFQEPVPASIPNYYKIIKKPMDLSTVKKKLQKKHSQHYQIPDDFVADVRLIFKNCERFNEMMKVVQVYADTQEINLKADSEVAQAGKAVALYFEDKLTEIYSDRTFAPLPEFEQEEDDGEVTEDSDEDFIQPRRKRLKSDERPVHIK
The test can be described thus: AlphaScreen binding assay, TRIM33 with biotinylated H3K9me3K18ac peptide.
Excerpt: (§4) The IC50 or EC50 of the compound of the present application can be determined by various methods known in the art. For example, the IC50 or EC50 of the compound of the present application can be measured by an AlphaScreen assay, as described herein (see FIG. 1).
as §1, §2, §3

For test [2], the system named is recombinant PHD-bromodomain module of TRIM33. The description is as above. The following applies: compounds shown in Table 2a.
Excerpt: as §4, §1, §2, §3

Where two headings read alike, the source gives them in different places.

As for `COc1ccc(CCNc2c(-c3nc[nH]c3C)nc3cnccn23)cc1OC` [Compound B8], the IC50 at TRIM24 (compounds with R7/R7′ shown in FIG. 11A (Table 6), read-out: IC50 TRIM24) came to 225 nM; in test [1] (compounds shown in Table 2a, called TRIM33 IC50 in title of Table 5, unit inferred, read-out: TRIM33 modulating activity) it was 44200 nM; in test [1] (compounds with R7/R7′ shown in FIG. 11A (Table 6), read-out: IC50 TRIM33), 283 nM. Moreover, the “Ratio of TRIM24 IC50 over TRIM33 IC50” value in test [2] came to 1276.41.

Turning to `Cc1nc[nH]c1-c1nc2ccc(C(=O)NN)cn2c1NCCN1CCOCC1` [pck-9295-134], the IC50 at TRIM24 (compounds shown in FIG. 14A (Table 8), read-out: TRIM 24 IC50) turned out to be 304 nM; in test [1] (compounds shown in FIG. 14A (Table 8), read-out: TRIM 33 IC50), 1290 nM.

These data come from patent publication US11731967B2, “Inhibitors of TRIM33 and methods of use” (Dana-Farber Cancer Institute, Inc., priority 2017, dated 2023).
